Experimental data as given in BigSolDB 2.1.

Cc1cccc(C(=O)O)c1N
solubility (mole fraction)
Conditions	278.15 K	283.15 K	288.15 K	293.15 K	298.15 K	303.15 K	308.15 K	313.15 K	318.15 K
in 1,4-dioxane	–	–	0.108	0.117	0.127	0.137	0.148	0.159	0.171
in 2-butanone	0.0646	0.0721	0.0792	0.0872	0.0953	0.104	0.114	0.124	0.134
in acetone	0.0745	0.0829	0.0918	0.101	0.111	0.121	0.132	0.143	0.154
in acetonitrile	0.0227	0.0275	0.0329	0.039	0.0461	0.054	0.0628	0.0727	0.0834
in cyclohexane	–	8.89e-05	0.000115	0.000153	0.000204	0.00027	0.00035	0.000454	0.000578
in ethanol	0.0176	0.0208	0.0244	0.0286	0.0333	0.0385	0.0444	0.0509	0.0582
in ethyl acetate	0.0294	0.0345	0.0405	0.0469	0.054	0.0619	0.0704	0.0803	0.0907
in isopropanol	0.00876	0.0109	0.0138	0.017	0.0208	0.0253	0.0303	0.036	0.0427
in methanol	0.02	0.0235	0.0273	0.0317	0.0367	0.0423	0.0483	0.055	0.0624
in n-butanol	0.0117	0.0144	0.0176	0.0212	0.0254	0.0302	0.0357	0.0422	0.0498
in n-propanol	0.0151	0.0178	0.0212	0.0251	0.0293	0.0344	0.04	0.046	0.0532
in toluene	0.0011	0.00145	0.00184	0.00235	0.00298	0.00382	0.0049	0.00619	0.00797
